Measurements from the NIST ThermoML archive (doi:10.1021/je060271a).

Settings: 323.15 K, Liquid, Vibrating tube method

CCCC(=O)OCC(COC(=O)CCC)(COC(=O)CCC)COC(=O)CCC [pentaerythritol tetrabutyrate]
Settings | mass density [kg/m3]
15786 kPa | 1036
15818 kPa | 1036
15856 kPa | 1036.1
15888 kPa | 1036
15920 kPa | 1036
15952 kPa | 1036.1
15991 kPa | 1036.1
16024 kPa | 1036.1
16057 kPa | 1036.1
16097 kPa | 1036.2
16131 kPa | 1036.3
16164 kPa | 1036.2
16204 kPa | 1036.3
16238 kPa | 1036.4
16305 kPa | 1036.3
16381 kPa | 1036.4
16759 kPa | 1036.6
16795 kPa | 1036.7
16831 kPa | 1036.7
16875 kPa | 1036.7
18410 kPa | 1037.7
18440 kPa | 1037.7
18726 kPa | 1037.9
18756 kPa | 1038
19188 kPa | 1038.2
19252 kPa | 1038.3
19278 kPa | 1038.4
19311 kPa | 1038.3
19396 kPa | 1038.4
19436 kPa | 1038.4
19469 kPa | 1038.4
19501 kPa | 1038.4
19541 kPa | 1038.4
19574 kPa | 1038.4
19608 kPa | 1038.4
19648 kPa | 1038.6
19682 kPa | 1038.6
19970 kPa | 1038.7
20047 kPa | 1038.7
20089 kPa | 1038.7
20124 kPa | 1038.7
20159 kPa | 1038.9
20202 kPa | 1038.8
20238 kPa | 1039
20546 kPa | 1039.1
20584 kPa | 1039
21551 kPa | 1039.8
21639 kPa | 1039.7
21673 kPa | 1039.9
21714 kPa | 1039.9
21749 kPa | 1039.8
21784 kPa | 1039.8
21826 kPa | 1039.9
21862 kPa | 1040
21898 kPa | 1040
21934 kPa | 1040
21976 kPa | 1040
22011 kPa | 1040
22048 kPa | 1040
22091 kPa | 1040.1
22126 kPa | 1040
22162 kPa | 1040.2
22206 kPa | 1040.1
22243 kPa | 1040.2
22279 kPa | 1040.1
22323 kPa | 1040.3
22360 kPa | 1040.1
22398 kPa | 1040.2
22443 kPa | 1040.4
22480 kPa | 1040.3
22518 kPa | 1040.3
22563 kPa | 1040.3
22602 kPa | 1040.4
23845 kPa | 1041.3
23898 kPa | 1041.2
23944 kPa | 1041.2
23987 kPa | 1041.3
24030 kPa | 1041.3
24100 kPa | 1041.4
24135 kPa | 1041.4
24290 kPa | 1041.4
24326 kPa | 1041.4
24362 kPa | 1041.4
24397 kPa | 1041.5
24789 kPa | 1041.8
24827 kPa | 1041.8
24872 kPa | 1041.9
24910 kPa | 1041.8
25317 kPa | 1042.1
25357 kPa | 1042.1
25403 kPa | 1042.2
25442 kPa | 1042.2
25481 kPa | 1042.2
25528 kPa | 1042.2
25569 kPa | 1042.3
25608 kPa | 1042.2
25656 kPa | 1042.3
25696 kPa | 1042.3
25736 kPa | 1042.3
25784 kPa | 1042.5
26584 kPa | 1042.8
27050 kPa | 1043.1
27094 kPa | 1043.1
27148 kPa | 1043.2
27193 kPa | 1043.3
27239 kPa | 1043.4
27294 kPa | 1043.3
27340 kPa | 1043.4
27386 kPa | 1043.3
27432 kPa | 1043.4
27488 kPa | 1043.4
27535 kPa | 1043.5
27876 kPa | 1043.7
27985 kPa | 1043.8
28093 kPa | 1043.7
28151 kPa | 1044
28200 kPa | 1043.9
28250 kPa | 1043.9
28409 kPa | 1044
28460 kPa | 1044.1
28519 kPa | 1044
28562 kPa | 1044.2
28628 kPa | 1044.1
28679 kPa | 1044.2
28730 kPa | 1044.2
29066 kPa | 1044.5
29135 kPa | 1044.4
29177 kPa | 1044.5
29260 kPa | 1044.5
29301 kPa | 1044.6
29338 kPa | 1044.7
29373 kPa | 1044.7
29415 kPa | 1044.7
29449 kPa | 1044.6
29492 kPa | 1044.7
29529 kPa | 1044.8
29563 kPa | 1044.8
29598 kPa | 1044.6
29642 kPa | 1044.9
29678 kPa | 1044.8
29720 kPa | 1044.9
29756 kPa | 1044.8
29793 kPa | 1044.8
29839 kPa | 1044.9
30028 kPa | 1045.1
30074 kPa | 1045.1
